Measured values as given in patent US7981897B2, “Crystal form of (3-cyano-1H-Indo1-7-yl)-[4-(4-fluorophenethyl)piperazin-1-yl]methanone, hydrochloride” (Merck Patent GmbH, priority 2004, dated 2011).

Experiments:
[1] = Tabletting in a cam press: formation of form B under mechanical pressure, estimated by X-ray powder diffraction; type: physicochemical
Protocol: The pressures here are preferably those which usually prevail during tablet production if ram forces of between about 2 and 16 kN, in particular between 6 and 16 kN, are used as the maximum pressing forces.
In an EK0 cam press from Korsch (Berlin, Germany), year of construction 2002, tablets are produced at a rate of 50 units per minute using a 7 mm, round, flat ram with bevel.
The tablets contain 50 mg of EMD281014 in crystal form A, 93.2 mg of lactose monohydrate, 4.5 mg of croscarmellose and 2.3 mg of magnesium stearate. The ingredients are dry-mixed and compressed directly.
The proportion of form B is estimated by comparison of the X-ray powder diffraction patterns of the mixtures (FIGS. 3 and 4) with the diffraction patterns of the pure forms (FIGS. 1 and 2).

[2] = Stirring a suspension of form A in MTBE, form B estimated by X-ray powder diffraction; type: physicochemical
[3] = Storage of form B at elevated temperature, conversion into form A; type: physicochemical; settings: storage at 105° C. for 24 hours
Protocol: Furthermore, a very simple method for the preparation of form A from form B has been found. To this end, form B merely needs to be stored at elevated temperatures of between about 75 and about 225° C., preferably 90 and 160° C. and particularly preferably between 110 and 140° C. Depending on the temperature and the storage duration, different degrees of conversion can be achieved. Depending on the target degree of conversion, the storage duration at a given temperature can be between a few minutes and several days. In order to achieve high degrees of conversion, […] is preferably stored for from several hours to days. Suitable storage times are, for example, 4, 8, 12, 16, 20, 24, 36 or 48 hours.

5-HT2A receptor [4] = target: T1, 5-HT2A receptor (Homo sapiens, UniProt P28223); settings: background statement, no values; cited from earlier work
5-HT2A receptor [5] = target: T1, 5-HT2A receptor; settings: background statement, no values; cited from earlier work; remark: listed apart in the source
[6] = cam press, contact time 310 ms, maximum pressing force 16 kN

T1 sequence (P28223 whole entry): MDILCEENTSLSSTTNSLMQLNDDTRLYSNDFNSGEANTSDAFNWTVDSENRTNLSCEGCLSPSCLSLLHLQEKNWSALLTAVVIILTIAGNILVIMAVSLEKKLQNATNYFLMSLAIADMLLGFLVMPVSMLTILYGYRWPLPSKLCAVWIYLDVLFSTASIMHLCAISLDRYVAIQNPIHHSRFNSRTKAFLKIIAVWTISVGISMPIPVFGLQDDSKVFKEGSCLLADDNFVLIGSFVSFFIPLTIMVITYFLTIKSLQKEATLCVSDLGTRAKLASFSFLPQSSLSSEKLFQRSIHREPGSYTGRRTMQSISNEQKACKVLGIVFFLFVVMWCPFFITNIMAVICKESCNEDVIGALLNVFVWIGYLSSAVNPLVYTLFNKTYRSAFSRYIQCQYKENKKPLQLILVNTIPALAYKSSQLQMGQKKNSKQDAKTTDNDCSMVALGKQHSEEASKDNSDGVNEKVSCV

With `Cl.N#Cc1c[nH]c2c(C(=O)N3CCN(CCc4ccc(F)cc4)CC3)cccc12` [EMD281014 form A, 7-{4-[2-(4-fluorophenyl)ethyl]-piperazine-1-carbonyl}-1H-indole-3-carbonitrile, hydrochloride] the “proportion of form B” value ([1]; cam press, contact time 250 ms, maximum pressing force 6 kN) was “about 20%”, the “proportion of form A in the mixture obtained” value [1, 6] was ~75% and the “proportion of form B in the mixture obtained” value [1, 6] was “about 25%”. For the same compound, the “proportion of form B” value ([2]; 250 mg in 5 ml MTBE, stirred 14 days at room temperature) was “about 30 % by weight” and the “form B obtained in addition to form A” value ([2]; suspension in MTBE, room temperature, 14 days) was “about 30%”.

In the case of `Cl.N#Cc1c[nH]c2c(C(=O)N3CCN(CCc4ccc(F)cc4)CC3)cccc12` [EMD281014 form B, (3-cyano-1H-indol-7-yl)-[4-(4-fluorophenethyl)piperazin-1-yl]methanone, hydrochloride], the “stability under the tablet production conditions” value ([1]; X-ray diffraction patterns of tablets produced from form B, no form A or further polymorphic forms unambiguously identified) is reported as “stable” and the “conversion of B into A” value [3] is reported as “complete conversion”.

For `Cl.N#Cc1c[nH]c2c(C(=O)N3CCN(CCc4ccc(F)cc4)CC3)cccc12` [EMD281014, (3-cyano-1H-indol-7-yl)-[4-(4-fluorophenethyl)piperazin-1-yl]methanone, hydrochloride], the “affinity to 5-HT2A receptors” value (5-HT2A receptor [4]) is listed as “strong affinity” and the 5-HT2A receptor-antagonistic properties (5-HT2A receptor [5]) is listed as 5-HT2A receptor-antagonistic properties.
